Source: patent publication US5605700A (priority 1992, dated 1997)
Entries after “also recorded” stand apart in the source; their conditions may differ.

Columns and labels:
[1] = test system: MDR-positive cells; settings: cited from earlier work; for multidrug resistance reversal / chemosensitizing activity: in vitro
[2] = test system: MDR MDA A-1 tumors; assay: Doxorubicin cytotoxicity enhancement in MDR tumors; clonogenic assay of tumors excised from treated mice; assay type: in vivo, mouse; settings: for percent inhibition (clonogenic assay): all three tumors, doxorubicin 1 μg/ml 1 hour, 14 days
Procedure: Drug was applied dropwise to the skin surface directly and around the tumor. Each drop was allowed to evaporate completely. This treatment was administered once a day at the same time for a total of five days. […] Tumors were collected sterilely and processed for clonogenic assay.
The remaining portion was cloned following a 1 hour exposure to doxorubicin 1 μg/ml.

[3] = test system: estrogen receptor (ER) positive metastatic breast cancer; settings: cited from earlier work
[4] = test system: estrogen receptors (ER's); settings: cited from earlier work
[5] = Tissue distribution of toremifene after single dose (500 μg) IP vs. topical; assay type: in vivo; settings: mouse, 0.5 mg
Procedure: Single dose toremifene was administered by IP as described above, or topically with DMSO/ETOH/methylcellulose/water as the diluents. […] Tissue samples were collected as above.
All blood samples were centrifuged at 1,000 g. […] Samples were collected and dried as described below. […] The brain samples required filtration with disposable syringe filters.
DMSO and methylcellulose were used as the diluents. […] This was trend noted in both serum and uterus.

[6] = test system: MCF-7 cells; assay: Prevention of breast cancer (MCF-7) tumor growth by topical administration in the mouse; assay type: in vivo; settings: topical 500 μg, 15 days
Procedure: In this study 12 mice were transplanted with MCF-7 cells and were allowed to grow until a small tumor was detected in all mice (<1 mm^3). At that time mice were divided into three groups of four mice each. […] All mice received the same amount of diluent/day (20 μl ). The study was assessed following 15 days of treatment.

[7] = test system: spontaneous non-Hodgkin's lymphoma; assay: Treatment of spontaneous non-Hodgkin's lymphoma in a baboon; assay type: in vivo
Procedure: Enlarged lymph nodes with diameters of 1-2 cm were evident in the both groins. Toremifene was dissolved in a. mixture of dimethylsulfoxide, ethanol and methylcellulose. […] On day 25 following start of treatment, topical therapy of right groin was re-instituted while continuing the oral treatment. […] The response to therapy was determined by measuring the sizes of the tumors on two perpendicular dimensions.

[8] = Plasma and tissue concentration of toremifene after topical administration in Monodelphis domestica; assay type: in vivo
Procedure: The dose was 0.5 mg/d in 3 and 1 mg/d in 3 animals.

[9] = test system: TD 36; assay: Cytostatic effect in melanoma cell line TD 36; assay type: cell-based; settings: human cell line TD 36; read-out: IC-50 (50% growth inhibitory concentration)
[10] = test system: TD 30 A; assay: Cytostatic effect in melanoma cell line TD 30 A; assay type: cell-based; settings: human cell line TD 30 A; read-out: IC-50 (50% growth inhibitory concentration)
[11] = test system: SD-MEL-31; assay: Cytostatic effect in metastatic melanoma cell line SD-MEL-31 (text: SK-MEL-31); assay type: cell-based; settings: human cell line SD-MEL-31; read-out: IC-50 (50% growth inhibitory concentration)
Excerpt: (§1) The metastatic melanoma cell line, SK-MEL-31, was obtained from the American Type Culture Collection (Rockville, Md.). Two additional human cell lines were derived from portions of surgigally-excised large diameter, superficial spreading melanomas. TD 1.4 was developed from a benign melanoma, whereas TD 7.2 and TD 8 were derived from melanocytic hyperplasias.

[12] = test system: TD 8; assay: Cytostatic effect in experimental cell line TD 8; assay type: cell-based; settings: Monodelphis domestica, read-out: IC-50 (50% growth inhibitory concentration)
Excerpt: as §1

[13] = test system: TD 1.4; assay: Cytostatic effect in experimental cell line TD 1.4; assay type: cell-based; settings: Monodelphis domestica, read-out: IC-50 (50% growth inhibitory concentration)
Excerpt: as §1

[14] = test system: TD 7.2; assay: Cytostatic effect in experimental cell line TD 7.2; assay type: cell-based; settings: Monodelphis domestica, read-out: IC-50 (50% growth inhibitory concentration)
Excerpt: as §1

[15] = test system: six cell lines of melanocyte origin; assay: Cytostatic effect in all six cell lines of melanocyte origin; assay type: cell-based, human and Monodelphis domestica
Excerpt: as §1

[16] = cited from earlier work; for concentration: following large oral doses, read-out: plasma concentration
[17] = Tissue distribution of toremifene and metabolites after 5 days IP vs. topical toremifene (HPLC), mice with MDA A-1 tumors; settings: for concentration at 2 h: mouse
Procedure: Sixteen female athymic nude mice were injected with a 20-gauge needle subcutaneously with 5×10^6 MDA A-1 cells in the left scapular area. The tumors were allowed to grow for three weeks prior to treatment.
Each of the three mice were injected IP using an 18 gauge needle with 50 μl, delivering 1 mg/day for five days. […] All mice were sacrificed on the fifth day of treatment two hours after the final dose. Blood specimens were collected by capillary pipette after disruption of axillary vessels and placed into heparinized centrifuge tubes. The brains, livers, and uterus were removed surgically and placed in separate tubes.
All blood samples were centrifuged at 1,000 g. The plasma was collected, measured for volume, and placed in clean extraction tubes. All remaining tissue samples were weighed, placed in extraction tubes, and spiked with an internal standard, nafoxidine. The tissues were thoroughly homogenized before the addition of 6 ml extraction fluid. Samples were collected and dried as described below. Before injection onto the HPLC column, each sample was reconstituted with 200 μl methanol. All samples were placed in a quartz cuvette for UV activation. The brain samples required filtration with disposable syringe filters.

[18] = oral 1 g on days 15, 17, 19 and 23
[19] = right inguinal lymphoma, topical re-instituted while continuing oral
[20] = brain, topical or ocular, 2.5 mg/day
[21] = liver, topical or ocular, 2.5 mg
[22] = serum, topical or ocular, 2.5 mg
[23] = tumor, topical or ocular, 2.5 mg
[24] = uterus, topical or ocular, 2.5 mg

SMILES: COc1ccc(CCN(C)CCCC(C#N)(c2ccc(OC)c(OC)c2)C(C)C)cc1OC (stereo not drawn) [verapamil]
- multidrug resistance reversal / chemosensitizing activity [1]: shown to reverse multidrug resistance in vitro

SMILES: COc1cccc2c1C(=O)c1c(O)c3c(c(O)c1C2=O)C[C@@](O)(C(=O)CO)C[C@@H]3O[C@H]1C[C@H](N)[C@H](O)[C@H](C)O1 [doxorubicin]
- sensitivity of tumor to doxorubicin without toremifene ([2]; mouse not treated with toremifene (FIG. 2)): resistant

SMILES: CC/C(=C(\c1ccccc1)c1ccc(OCCN(C)C)cc1)c1ccccc1 [tamoxifen]
- fraction of patients with temporary remission ([3]; ER positive metastatic breast cancer): About two-thirds
- endometrial toxicity ([3]; adjuvant therapy, women): increased risk of developing endometrial neoplasms; also recorded: endometrial dysplasia, bleeding, polyp formation and tumors
- estrogen receptor antagonism ([4]; inhibition of estrogen-induced growth): competitive antagonism of tumor estrogen receptors

SMILES: CN(C)CCOc1ccc(/C(=C(/CCCl)c2ccccc2)c2ccccc2)cc1 [toremifene]
- concentration at 2 h ([5]; serum, ip, Serum toremifene concentration): 90 ng/mL
- concentration at 2 h ([5]; serum, topical or ocular, Serum toremifene concentration, topical in DMSO): 30 ng/mL
- concentration at 2 h ([5]; serum, topical or ocular, Serum toremifene concentration, topical in methylcellulose (MC)): 20 ng/mL
- concentration at 2 h ([5]; tumor, ip, Tumor toremifene concentration): 2570 ng/g
- concentration at 2 h ([5]; tumor, topical or ocular, Tumor toremifene concentration, topical in DMSO): 4650 ng/g
- concentration at 2 h ([5]; tumor, topical or ocular, Tumor toremifene concentration, topical in methylcellulose (MC)): 1800 ng/g
- concentration at 2 h ([5]; uterus, ip, Uterus toremifene concentration): 23600 ng/g
- concentration at 2 h ([5]; uterus, topical or ocular, Uterus toremifene concentration, topical in DMSO): 920 ng/g
- concentration at 2 h ([5]; uterus, topical or ocular, Uterus toremifene concentration, topical in methylcellulose (MC)): 1100 ng/g
- effect on tumor growth [6]: prevented tumor growth
- percent inhibition (clonogenic assay) ([2]; intraperitoneal toremifene): < 30%
- percent inhibition (clonogenic assay) ([2]; topical toremifene): > 30%
- sensitization of tumors to doxorubicin ([2]; topical toremifene, cloning studies (FIG. 2)): appears to sensitize these MDR MDA A-1 tumors to doxorubicin
- left inguinal lymphoma during oral therapy [7, 18]: stabilized
- right inguinal lymphoma during oral therapy [7, 18]: begun to regrow
- response of lymphoma to topical toremifene ([7]; right inguinal lymphoma, 1.4 g topical over 8 days): clear response
- tumor area after reinstituted topical therapy [7, 19]: 24 mm^2
- tumor area before reinstituted topical therapy [7, 19]: 476 mm^2
- in vivo antitumor response ([7]; topical, regional T-cell lymphoma): can produce an in vivo antitumor response
- mean concentration of toremifene in brain ([8]; topical 0.5 mg/day for 5 days): 0.82 ± 0.99 nmol/g
- mean concentration of toremifene in skin ([8]; topical 0.5 mg/day for 5 days): 1296.40 ± 1003.93 nmol/g
- mean concentration of toremifene in brain ([8]; topical 1 mg/day for 5 days): 0.82 ± 0.62 nmol/g
- mean concentration of toremifene in skin ([8]; topical 1 mg/day for 5 days): 1237.35 ± 768.90 nmol/g
- Toremifene concentration in skin as compared to other tissues ([8]; topical 0.5 and 1 mg/day for 5 days): more than 500 fold
- IC50 [9]: 5.8 µM
- IC50 [10]: 7.7 µM
- IC50 [11]: 8.1 µM
- IC50 [12]: 7.7 µM
- IC50 [13]: 9.3 µM
- IC50 [14]: 9.6 µM
- IC50 ([15]; Melanocyte, all six cell lines, read-out: range of IC-50s): 5.8 to 9.6 µM
- cytostatic effect ([15]; human and experimental melanomatous cell lines in vitro): clear cytostatic effect
- concentration that reverses resistance in vitro ([1]; achievable in vivo following oral therapy): 5 µM
- multidrug resistance reversal / chemosensitizing activity [1]: have chemosensitizing activity in MDR-positive cells
- concentration [16]: ~10 µM
- systemic toxicity ([16]; high-dose toremifene (400 mg/day)): generally confined to vertigo, nausea and hot flashes

SMILES: CNCCOc1ccc(C(=C(CCCl)c2ccccc2)c2ccccc2)cc1 [N-demethyltoremifene, 4-chloro-1,2-diphenyl-[4-[2-(N-methylamino)ethoxy-]phenyl]-1-butene]
- concentration at 2 h ([17]; brain, ip, 1 mg/day): 490 ng/g
- concentration at 2 h [17, 20]: 290 ng/g
- concentration at 2 h ([17]; liver, ip, 1 mg): 940 ng/g
- concentration at 2 h [17, 21]: 920 ng/g
- concentration at 2 h ([17]; serum, ip, 1 mg): 180 ng/mL
- concentration at 2 h [17, 22]: 80 ng/mL
- concentration at 2 h ([17]; tumor, ip, 1 mg): 1270 ng/g
- concentration at 2 h [17, 23]: 8430 ng/g
- concentration at 2 h ([17]; uterus, ip, 1 mg): 1180 ng/g
- concentration at 2 h [17, 24]: 560 ng/g
- multidrug resistance reversal / chemosensitizing activity [1]: have chemosensitizing activity in MDR-positive cells
- concentration [16]: ~10 µM

SMILES: CN(C)CCOc1ccc(/C(=C(/CCCl)c2ccccc2)c2ccc(O)cc2)cc1 [4-hydroxytoremifene, 4-chloro-1-(4-hydroxyphenyl)-2-phenyl-1-[4-[2-(N, N-dimethylamino)ethoyoxy]phenyl]-1-butene]
- Topical/IP brain concentration ratio ([17]; brain, topical 2.5 mg/day vs IP 1 mg/day, 5 days, listed as Trans 4-hydroxytoremifene): 1.00
- Topical/IP brain concentration ratio ([17]; brain, topical 2.5 mg/day vs IP 1 mg/day, 5 days, listed as trans 4-hydroxytoremifene): identical
- Topical/IP liver concentration ratio ([17]; liver, topical 2.5 mg/day vs IP 1 mg/day, 5 days): 1.63
- concentration at 2 h ([17]; brain, ip, 1 mg/day): 350 ng/g
- concentration at 2 h [17, 20]: 350 ng/g
- concentration at 2 h ([17]; liver, ip, 1 mg): 600 ng/g
- concentration at 2 h [17, 21]: 980 ng/g
- concentration at 2 h ([17]; serum, ip, 1 mg): 160 ng/mL
- concentration at 2 h [17, 22]: 100 ng/mL
- concentration at 2 h ([17]; tumor, ip, 1 mg): 880 ng/g
- concentration at 2 h [17, 23]: 2330 ng/g
- concentration at 2 h ([17]; uterus, ip, 1 mg): 830 ng/g
- concentration at 2 h [17, 24]: 700 ng/g
- Topical/IP serum concentration ratio ([17]; serum, topical 2.5 mg/day vs IP 1 mg/day, 5 days, listed as Trans 4-hydroxytoremifene): 0.63
- Topical/IP serum concentration ratio ([17]; serum, topical 2.5 mg/day vs IP 1 mg/day, 5 days, listed as trans 4-hydroxytoremifene): lower
- Topical/IP tumor concentration ratio ([17]; tumor, topical 2.5 mg/day vs IP 1 mg/day, 5 days, listed as Trans 4-hydroxytoremifene): 2.65
- Topical/IP tumor concentration ratio ([17]; tumor, topical 2.5 mg/day vs IP 1 mg/day, 5 days, listed as trans 4-hydroxytoremifene): greater concentrations
- Topical/IP uterus concentration ratio ([17]; uterus, topical 2.5 mg/day vs IP 1 mg/day, 5 days): 0.84
- effect on tumor growth [6]: prevented tumor growth
- mice that developed a tumor ([6]; four mice per group, all four control mice had tumors >6×8 mms): only one mouse
- multidrug resistance reversal / chemosensitizing activity [1]: have chemosensitizing activity in MDR-positive cells
- antiestrogenic potency among metabolites [4]: most potent antiestrogenic metabolite
